Data published in publication PMC11020070, “Discovery of Protease-Activated Receptor 4 (PAR4)-Tethered Ligand Antagonists Using Ultralarge Virtual Screening” (ACS Pharmacology & Translational Science, 2024).

Key:
Format in all cases: in vitro ADME
[1] = Plasma protein binding, human plasma; conditions: pH 7.4, read-out: human PPB fu
[2] = Microsomal stability, mouse liver microsomes; conditions: for CLint scaled at 1 µM: pH 7.4, mouse liver microsomes, in vitro, reaction started with NADPH; for mouse CLhep: predicted hepatic clearance from mouse liver microsomes
Method: The metabolic stability of each compound was investigated in mouse and human hepatic microsomes using substrate depletion methodology (% parent compound remaining). Prior to use, microsomes were removed from the freezer and allowed to thaw in a 37 °C water bath before being placed on wet ice.
(§1) In separate 96-well plates for each time point, a mixture of 0.1 M potassium phosphate-buffered (pH 7.4), 3 mM MgCl2, and 2.5 mg/mL microsomes were prewarmed at 37 °C for 5 min. Following the preincubation, a 1 μM test compound and 1 mM NADPH (for 3, 7, 15, 25, or 45 min time points) or buffer (for 0 min time point) were added to initiate the reaction. Under standard conditions, reactions were initiated with the addition of NADPH. To delineate the contribution of esterases, some experiments were initiated by the addition of substrate in the presence or absence of NADPH. Plates were incubated at 37 °C under ambient oxygenation. At the respective times, each plate’s reaction was precipitated by the addition of 2 volumes of ice-cold acetonitrile containing an internal standard (carbamazepine, 50 nM). The plates were centrifuged at 4000 rcf (4 °C) for 5 min. The resulting supernatants were transferred and diluted 1:1 (supernatant:water) into new 96-well plates in preparation for LC/MS/MS analysis. Each compound was assayed in triplicate within the same 96-well plate. The in vitro half-life (t1/2, min, eq 1), intrinsic clearance (CLint, mL/min/kg, eq 2), and subsequent predicted hepatic clearance (CLhep, mL/min/kg, eq 3) were determined employing the following equations [drawing 1] 1 [drawing 2] 2 [drawing 3] 3 The estimated percent contribution to metabolism was calculated from the percent substrate lost plots generated from metabolic incubations initiated with the addition of a test compound. Calculations compared the area under the curve (AUC) from conditions in the presence and absence of NADPH and buffer-only (control) conditions (eqs 4 and 5). AUC was calculated by using the trapezoidal method [drawing 4] 4 [drawing 5] 5
The analysis of in vitro samples from microsomal stability or plasma protein binding experiments was determined by employing LCMS/MS with an electrospray ionization-enabled 5500 Sciex instrument (Sciex, Foster City, CA) that was coupled to Agilent HPLC pumps and an autosampler (Agilent Technologies, Santa Clara, CA). Analytes were separated by gradient elution using a Kinetex C18 column (2.1 mm × 50 mm, 5 μm; Phenomenex, Torrance, CA) warmed to 35 °C. Mobile phase A was 0.5% formic acid in water, and mobile phase B was 0.5% formic acid in acetonitrile. […] The total run time was 2.8 min, and the HPLC flow rate was 0.5 mL/min. Mass spectral analyses were performed using multiple reaction monitoring, with transitions and voltages specific for each analyte using a Turbo Ion Spray source (source temperature of 500 °C) in positive ionization mode (5.0 kV spray voltage). Multiple reaction monitoring transitions were the following: 6110B8 (m/z 345.02 → 149.03, DP = 31; EP = 10; CE = 37 and CXP = 14), 6G3R (m/z 421.06 → 225.12, DP = 91; EP = 10; CE = 39 and CXP = 12), 5D22 (m/z 309.068 → 211.16, DP = 131; EP = 10; CE = 29 and CXP = 12), and carbamazepine (m/z 237 → 194, DP = 96; EP = 10; CE = 25 and CXP = 8). Data were analyzed using OS Sciex Analyst 1.5.1 (SCIEX, Framingham, MA), Graphpad Prism 10.1.0 (GraphPad Software, Boston, Massachusetts), and Microsoft Excel version 2310 (Microsoft, Redmond, WA).

[3] = Plasma protein binding, mouse plasma; conditions: pH 7.4, read-out: mouse PPB fu
Method: The protein binding of each compound was determined in mouse plasma via equilibrium dialysis employing single-use RED plates with inserts (Thermo Fisher Scientific, Rochester, NY). Plasma (220 μL) was added to a 96-well plate containing test compound (5 μL) and mixed thoroughly. Subsequently, 200 μL of the plasma–compound mixture was transferred to the cis chamber (red) of the RED plate with an accompanying 350 μL of phosphate buffer (25 mM, pH 7.4) in the trans chamber. The RED plate was sealed and incubated for 4 h at 37 °C with shaking. At completion, 50 μL aliquots from each chamber were diluted 1:1 (50 μL) with either plasma (cis) or buffer (trans) and transferred to a new 96-well plate, at which time ice-cold acetonitrile (2 volumes) was added to extract the matrices. The plate was centrifuged (3000 rpm, 10 min), and supernatants were transferred and diluted 1:1 (supernatant: water) into a new 96-well plate, which was then sealed in preparation for LC/MS/MS analysis. Each compound was assayed in triplicate within the same 96-well plate.
The analysis of in vitro samples from microsomal stability or plasma protein binding experiments was determined by employing LCMS/MS with an electrospray ionization-enabled 5500 Sciex instrument (Sciex, Foster City, CA) that was coupled to Agilent HPLC pumps and an autosampler (Agilent Technologies, Santa Clara, CA). Analytes were separated by gradient elution using a Kinetex C18 column (2.1 mm × 50 mm, 5 μm; Phenomenex, Torrance, CA) warmed to 35 °C. Mobile phase A was 0.5% formic acid in water, and mobile phase B was 0.5% formic acid in acetonitrile. […] The total run time was 2.8 min, and the HPLC flow rate was 0.5 mL/min. […] Data were analyzed using OS Sciex Analyst 1.5.1 (SCIEX, Framingham, MA), Graphpad Prism 10.1.0 (GraphPad Software, Boston, Massachusetts), and Microsoft Excel version 2310 (Microsoft, Redmond, WA).

[4] = Modified microsomal clearance assay with or without NADPH, mouse liver microsomes; conditions: for Estimated % Contribution to Metabolism Mouse CYPs/FMOs / Estimated % Contribution to Metabolism Mouse Esterases: MLM, from AUC with/without NADPH vs buffer only; for CLint scaled at 1 µM: mouse, liver microsomes, pH 7.4, MLM, reaction initiated by test compound
Method: It is of note that the experimental design for the initial round of microsomal clearance assays adds a test compound to microsomes before the reaction is started by the addition of nicotinamide adenine dinucleotide phosphate (NADPH). This design assumes that the major contributing drug-metabolizing enzymes are cytochrome P450s (CYPs). To investigate this further, the experimental design was modified where the reaction was initiated by the addition of a test compound and was carried out in the presence or absence of NADPH. […] By comparison of the measured intrinsic clearance in the presence and absence of NADPH, the contribution of non-CYP450 drug-metabolizing enzymes can be estimated.
Mammalian liver microsomes include CYPs, flavin monooxygenases (FMOs), glucuronosyltransferases ([…]), and esterases as part of their enzyme composition. In the presence of NADPH, which serves as a cofactor for CYP- and FMO-dependent reactions, the observed activity can be attributed to these enzymes. Similarly, UGTs require the cofactor uridine diphosphate glucuronic acid (UDPGA). Therefore, when NADPH and UDPGA are absent, any reduction in the compound can be ascribed only to esterase activity or chemical instability. […] This is based on two factors: (1) the stability of the compounds in HP buffer, which is used in the platelet assays, and (2) the low probability of drug metabolism occurring within the platelets themselves. Together, these minimize the chance that any metabolites with distinct PAR4 potencies could confound the results. By comparing the area under the curve of the compound metabolized from the microsomal incubations in the presence or absence of NADPH to the corresponding area under the curve of the buffer-only incubation, the percent contribution of CYPs and FMOs and esterases were estimated (Table S1). The major contributing enzyme toward the metabolism of 12 is esterases in both the human (96%) and mouse (98%). In contrast, the metabolism of 31 was primarily driven by CYPs and FMOs in both HLM (80%) and MLM (88%).
as §1
Clint (mL/min/kg) Estimated % Contribution to Metabolism
Compound Human Mouse Human Mouse +NADPH -NADPH +NADPH -NADPH CYPs/FMOs Esterases CYPs/FMOs Esterases […]

fraction unbound at 4 h [1]	CLint scaled at 1 µM [2]	mouse CLhep [2]	fraction unbound at 4 h [3]	Estimated % Contribution to Metabolism Mouse CYPs/FMOs [4]	Estimated % Contribution to Metabolism Mouse Esterases [4]	CLint scaled at 1 µM ([4]; +NADPH)	CLint scaled at 1 µM ([4]; -NADPH)	Structure (SMILES)
0.036	–	–	–	–	–	–	–	Cc1cc(C(=O)Nc2n[nH]c(OC(F)F)n2)nn1-c1ccccc1 [Compound 9]
0.029	2440 mL/min/kg	86.8 mL/min/kg	0.006	–	0%	789 mL/min/kg	27.8 mL/min/kg	O=C(Nc1nc[nH]n1)c1nn(-c2ccccc2)c2c1CCC2 [Compound 17]

More lines, now with the values behind:

Structure (SMILES)	fraction unbound at 4 h [1]	CLint scaled at 1 µM [2]	mouse CLhep [2]	fraction unbound at 4 h [3]	Estimated % Contribution to Metabolism Mouse CYPs/FMOs [4]	Estimated % Contribution to Metabolism Mouse Esterases [4]	CLint scaled at 1 µM ([4]; +NADPH)	CLint scaled at 1 µM ([4]; -NADPH)
COc1cccc(-c2nc(NC(=O)c3nn(-c4ccccc4)c4c3CCCC4)n[nH]2)c1 [Compound 32]	0.007	–	–	–	–	–	–	–
O=C(Nc1n[nH]c(-c2ccc(F)cc2F)n1)c1nn(-c2ccccc2)c2c1CCCC2 [Compound 31]	0.015	19900 mL/min/kg	89.6 mL/min/kg	0.044	88%	12%	10400 mL/min/kg	32.3 mL/min/kg
Cn1nc(C(=O)Nc2n[nH]c(-c3c(F)cccc3F)n2)cc1C1CC1 [Compound 12]	0.052	11500 mL/min/kg	89.3 mL/min/kg	0.169	2%	98%	9820 mL/min/kg	6240 mL/min/kg
